Data on 7 compounds can be found in patent US8853423B2, “Indane estrogen receptor modulators and uses thereof” (Seragon Pharmaceuticals, Inc., priority 2010, dated 2014).

Holding throughout (type): cell-based
Experiment [1] concerns the target T1, ER-α (Homo sapiens, UniProt P03372).
T1 construct: endogenous in cells; host or cells: MCF-7
T1 sequence (P03372 1-595): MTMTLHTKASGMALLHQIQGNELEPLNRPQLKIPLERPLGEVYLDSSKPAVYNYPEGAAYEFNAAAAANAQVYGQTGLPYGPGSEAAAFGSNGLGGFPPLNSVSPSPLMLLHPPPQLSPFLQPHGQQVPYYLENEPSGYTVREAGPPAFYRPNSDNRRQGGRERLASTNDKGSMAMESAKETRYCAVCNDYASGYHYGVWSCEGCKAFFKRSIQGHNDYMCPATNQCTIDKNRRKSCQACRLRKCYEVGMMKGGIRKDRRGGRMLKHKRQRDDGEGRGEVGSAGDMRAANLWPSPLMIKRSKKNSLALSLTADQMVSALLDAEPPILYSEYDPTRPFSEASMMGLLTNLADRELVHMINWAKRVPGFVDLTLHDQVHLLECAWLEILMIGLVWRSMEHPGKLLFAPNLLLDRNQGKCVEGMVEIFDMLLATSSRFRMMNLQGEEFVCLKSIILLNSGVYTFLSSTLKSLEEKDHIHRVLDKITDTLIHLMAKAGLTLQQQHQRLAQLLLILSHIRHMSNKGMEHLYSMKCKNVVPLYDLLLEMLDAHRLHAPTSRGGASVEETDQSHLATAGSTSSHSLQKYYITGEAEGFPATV
Nature of the experiment: ER-α in Cell Western Assay (SP1). Conditions: MCF-7 cells, SP1 rabbit monoclonal Ab, 4 or 24 hr post compound addition, read-out: ER In-Cell Western Assay (SP1); for Emax: MCF7, Max Response; for DC50: IC50. How it is done: (§1) MCF-7 cells were adjusted to a concentration of 200,000 cells per mL in RPMI containing 10% charcoal-stripped FBS and 20 mM HEPES. 16 microliters of the cell suspension (3200 cells) was added to each well of a poly-D-lysine 384 well plate, and the cells were incubated overnight to allow the cells to adhere. The following day an eleven point, serial semilog dilution of each compound was added to the cells in 16 μL at a final concentration ranging from 0.3-0.000003 μM. At 4 or 24 hr post compound addition, the cells were fixed (10% formalin in PBS) for 20 minutes. Cells were permeabalized in PBS 0.1% Triton and blocked with LICOR blocking buffer (50 μl/well, 90′). The wells were then incubated overnight at 4° C. with SP1 rabbit monoclonal Ab (Thermo Scientific) diluted 1:1000 in LICOR blocking buffer/0.1% Tween-20. Wells which were treated with blocking buffer with Tween but no antibody were used as a background control. Wells were washed with 0.1% Tween-20/PBS and then incubated in goat anti-rabbit IRDye™ 800CW (LICOR Inc.; 1:1000) and DRAQ5 DNA dye (1:2000 for 2 mM stock) diluted in LICOR blocking buffer containing 0.1% Tween-20 and 0.01% SDS for 60 minutes. Cells were washed (50 μl/well, 5′ each) in 0.1% Tween-20/PBS. Plates were scanned on a LICOR Odyssey infrared imaging system. Integrated intensities in the 800 nm channel and 700 nm channel were measured to determine levels of ER and DNA respectively. Percent ER levels were determined as follows: (Integrated intensity 800 nm sample/integrated intensity 700 nm sample)/(Integrated intensity 800 nm untreated cells/integrated intensity 700 nm untreated cells)×100=% ER levels.

The subject of the next experiment is MCF-7 cells. Kind of experiment: Breast Cancer Cell Viability Assay (MCF7 Viability Assay, CellTiter-Glo). Conditions: 5 days' compound exposure; for IC50: Homo sapiens, MCF7, 120 h. How it is done: MCF-7 cells were adjusted to a concentration of 20,000 cells per mL in RPMI containing 10% FBS and 20 mM HEPES. 16 microliters of the cell suspension (320 cells) was added to each well of a 384 well plate, and the cells were incubated overnight to allow the cells to adhere. The following day an eleven point, serial semilog dilution of each compound was added to the cells in 16 μL at a final concentration ranging from 0.3-0.000003 μM. After 5 days' compound exposure, 16 μL of CellTiter-GLo (Promega, Madison Wis.) was added to the cells the relative luminescence units (RLUs) of each well was determined. CellTiter-Glo added to 32 μL of medium without cells was used to obtain a background value. The Percent viability of each sample was determined as follows: (RLU sample-RLU background/RLU untreated cells-RLU background)×100=% viability.

The target in experiment [2] is T1, ER-α. Nature of the experiment: ER-α in Cell Western Assay (ER1D5). Conditions: MCF-7 cells, ER1D5 antibody, 4 or 24 hr post compound addition, read-out: ER In-Cell Western Assay (ER1D5); for Emax: MCF7, Max Response; for DC50: IC50. How it is done: as §1, with “with ER1D5 (Santa Cruz Biotechnology)” for “with SP1 rabbit monoclonal Ab (Thermo Scientific)”, “diluted 1:100” for “diluted 1:1000”, “goat anti-mouse” for “goat anti-rabbit”

Where only a bound is given, the exact number is not on record here.

By IC50 is commonly meant the concentration needed to halve the response being measured.

With `Oc1ccc(C2Cc3cc(O)ccc3C2c2ccc(OCCN3CCCC3)cc2)cc1` (stereo not drawn) [Example 1, 2-(4-Hydroxyphenyl)-1-(4-(2-(pyrrolidin-1-yl)ethoxy)phenyl)-2,3-dihydro-1H-inden-5-ol], at ER-α [1], the Emax was in the range of 60 to 85% and the DC50 was at most 1 nM. Besides, in the experiment with MCF-7 cells, the “MCF7 Viability Assay Max Response” value is reported as “++ (++ = a single % value ≧50%)” and the IC50 was at most 1 nM. On ER-α [2], the Emax fell in the range of 40 to 65% and the DC50 was at most 1 nM.

For the compound `C[C@@H]1CCN([C@@H](C)COc2ccc(C3c4ccc(O)cc4CC3c3ccc(O)cc3)cc2)C1` (stereo partly drawn) [Example 2, 2-(4-Hydroxyphenyl)-1-(4-((S)-2-((R)-3-methylpyrrolidin-1-yl)propoxy)phenyl)-2,3-dihydro-1H-inden-5-ol], on ER-α [1], the Emax is at least 85% and the DC50 was at most 1 nM. Besides, in the experiment on MCF-7 cells, the “MCF7 Viability Assay Max Response” value is “++ (++ = a single % value ≧50%)” and the IC50 was at most 1 nM. Besides, at ER-α [2], the Emax is at least 65% and the DC50 was at most 1 nM.

For `C[C@@H]1CCN([C@@H](C)COc2ccc(C3c4ccc(O)cc4CC3c3cccc(O)c3)cc2)C1` (stereo partly drawn) [Example 3, 2-(3-Hydroxyphenyl)-1-(4-((S)-2-((R)-3-methylpyrrolidin-1-yl)propoxy)phenyl)-2,3-dihydro-1H-inden-5-ol], on ER-α [1], the Emax was at least 85% and the DC50 is at most 1 nM. In addition, in the experiment on MCF-7 cells, the “MCF7 Viability Assay Max Response” value is recorded as “++ (++ = a single % value ≧50%)” and the concentration for half-maximal inhibition (IC50) was at most 1 nM. Moreover, at ER-α [2], the Emax is at least 65% and the DC50 was at most 1 nM.

With `C[C@@H]1CCN([C@@H](C)COc2ccc(C3c4ccc(O)cc4CC3c3ccccc3)cc2)C1` (stereo partly drawn) [Example 4, 1-(4-((S)-2-((R)-3-Methylpyrrolidin-1-yl)propoxy)phenyl)-2-phenyl-2,3-dihydro-1H-inden-5-ol], at ER-α [1], the Emax was at least 85% and the DC50 was at most 1 nM. For the same compound, in the experiment with MCF-7 cells, the “MCF7 Viability Assay Max Response” value is listed as “++ (++ = a single % value ≧50%)” and the IC50 is at most 1 nM. On ER-α [2], the Emax is at least 65% and the DC50 is at most 1 nM.

In the case of `C[C@@H]1CCN([C@@H](C)COc2ccc(C3c4ccc(O)c(F)c4CC3c3ccc(O)cc3)cc2)C1` (stereo partly drawn) [Example 5, 4-Fluoro-2-(4-hydroxyphenyl)-1-(4-((S)-2-((R)-3-methylpyrrolidin-1-yl)propoxy)phenyl)-2,3-dihydro-1H-inden-5-ol], on ER-α [1], the Emax is at least 85% and the DC50 is at most 1 nM. In addition, in the experiment with MCF-7 cells, the “MCF7 Viability Assay Max Response” value is reported as “++ (++ = a single % value ≧50%)” and the 50% inhibitory concentration (IC50) was at most 1 nM.

As to `C[C@@H]1CCN([C@@H](C)COc2ccc(C3c4ccc(O)cc4CC3c3ccc(F)cc3)cc2)C1` (stereo partly drawn) [Example 6, 2-(4-Fluorophenyl)-1-(4-((S)-2-((R)-3-methylpyrrolidin-1-yl)propoxy)phenyl)-2,3-dihydro-1H-inden-5-ol], on ER-α [1], the Emax is at least 85% and the DC50 is at most 1 nM. For the same compound, in the experiment with MCF-7 cells, the “MCF7 Viability Assay Max Response” value is listed as “++ (++ = a single % value ≧50%)” and the half-maximal inhibitory concentration (IC50) is above 1 nM.

On to `Oc1ccc2c(c1)CC(c1ccccc1)C2c1ccc(OCCN2CCCC2)cc1` (stereo not drawn) [Example 7, 2-Phenyl-1-(4-(2-(pyrrolidin-1-yl)ethoxy)phenyl)-2,3-dihydro-1H-inden-5-ol], for which, at ER-α [1], the Emax was 60 to 85% and the DC50 was at most 1 nM. Besides, in the experiment with MCF-7 cells, the “MCF7 Viability Assay Max Response” value is “++ (++ = a single % value ≧50%)” and the IC50 was above 1 nM.
